Results taken from patent US4000269A, “S-(α-substituted-arylmethylthio, -arylmethylsulfinyl, and -arylmethylsulfonyl)methyl phosphorus esters used as insecticides” (priority 1975, dated 1976).
Read-outs that look alike come from different tables or passages of the source.

Legend:
Type in all cases: in vivo
[1] = system: Two-spotted Spider Mite (Tetranychus urticae); assay: E. Two-spotted Spider Mite plant-dip test; conditions: 48 h, read-out: Percent Mortality, Two-spotted Spider Mite; for mortality at 100 ppm: 2 days
Method: Sieva lima bean plants with primary leaves 3 to 4 inches long are infested with about 100 adult mites per leaf 4 hours before use in this test. The mite and egg infested plants are dipped for 3 seconds in the same solutions used in the aphid test, and the plants set in the hood to dry. They are held for 2 days at 80° F., 60% R.H., and the adult mite mortality estimated on one leaf under a steroscopic microscope. The other leaf is left on the plant an additional 5 days and then examined at 10 X power to estimate the kill of eggs and of newly hatched nymphs, giving a measure of ovicidal and residual action, respectively.

[2] = system: Southern Armyworm (Prodenia eridania); assay: D. Southern Armyworm leaf-dip test; conditions: Spodoptera eridania, 48 h, read-out: Percent Mortality, Southern Armyworm
Method: Compounds are tested at 1000 and 100 ppm. in solution or suspension in 65 % acetone/35 % water. Sieva lima bean primary leaves are dipped for 3 seconds in the test solution and set in a hood on a screen to dry. When dry, each leaf is placed in a 4 -inch petri dish which has a moist filter paper in the bottom and ten third-instar armyworm larvae about 3/8 inch long. The dishes are covered and held at 80° F., and 60 % R.H. After 2 days, mortality counts and estimates of the amount of feeding are made. Compounds showing partial kill and/or inhibition of feeding are held an extra day for further observations.

[3] = system: Malaria Mosquito (Anopheles quadrimaculatus); assay: H. Malaria Mosquito Adult Test; conditions: 24 h, adults, 1 day, read-out: Percent Mortality, Malaria Mosquito
Method: Solutions of 65% acetone/35% water containing 10 ppm. of test compound are poured into wide-mouth 2-ounce jars, each containing a microscope slide. The slides are removed from the test solution with forceps and laid horizontally to dry on a wide-mouth 4-ounce bottle. When dry, they are placed in the same 4-ounce bottle and 10 4- to 5-day-old mosquitoes of mixed sexes are added to each bottle. A piece of cotton gauze held on by an elastic band serves as a lid, and wad of cotton soaked in 10% honey solution serves as food. Mortality counts are made after 1 day at 80° F., 50% R.H. (relative humidity) Data obtained with the above procedures are reported in Table II below.

[4] = system: Boll Weevil (Anthonomus grandis); assay: B. Boll Weevil leaf-dip test; conditions: 48 h, read-out: Percent Mortality, Boll Weevil
Method: (§1) Test compounds are prepared as 1000 ppm. solutions in 10 % acetone, 0.2 % Alrodyne 315 , and 89.8 % water. A tenfold dilution is made with 65 % acetone and 35 % water. The first or second true leaf of young cotton plants is dipped for 3 to 5 seconds in the test solution and placed in an exhaust hood to dry. When dry, each leaf is placed in a 4 -inch petri dish with a moist filter paper on the bottom. Ten adult boll weevils are removed from the stock culture and placed in the petri dish. The dishes are covered and held at 80° F. and 50 % R.H. After 2 days, mortality counts are made.

[5] = system: Tarnished Plant Bug (Lygus lineolaris); assay: A. Tarnished Plant Bug leaf-dip test; conditions: 48 h, read-out: Percent Mortality, Tarnished plant Bug
Method: as §1, with “The primary leaves” for “The first or second true leaf”, “of Sieva lima bean” for “of young cotton”, “plants are” for “plants is”, “test solutions” for “test solution”, “adult Lygus bugs” for “adult boll weevils”, “are aspirated” for “are removed”

Bean Aphid (Aphis fabae) = assay: C. Bean Aphid spray test; conditions: 48 h, read-out: Percent Mortality, Bean Aphid
Method: Compounds are tested at 100 , 10 and 1 ppm. in solution or suspension in 65 % acetone/35 % water. Two-inch fiber pots each containing a nasturtium plant 2 inches high and infested with about 150 aphids 2 days earlier, are placed on a turntable (4 RPM) and sprayed for two revolutions with a No. 154 DeVilbiss Atomizer at 20 psi. air pressure. The spray tip is held about 6 inches from the plants, and the spray is directed so as to give complete coverage of the aphids and the plants. The sprayed plants are laid on their sides on white enamel trays. Mortality estimates are made after holding for 2 days at 70° F. and 50% R.H.

[6] = system: Western Potato Leafhopper (Empoasca abrupta); assay: G. Western Potato Leafhopper plant-dip test; conditions: 48 h, 2 days, read-out: Percent Mortality, Western Potato Leafhopper
Method: Sieva lima bean plants with the primary leaf expanded to 3 to 4 inches are dipped into 100 or 10 ppm. 50 % acetone/50 % water solutions and set in the hood to dry. A 1 -inch piece of the tip of a treated leaf is cut off and placed in a 4 -inch petri dish with a moist filter paper in the bottom. From 3 to 10 second-instar nymphs are tapped from the culture plants into the test dish and rapidly covered. Mortality counts are made after 2 days at 80° F., and 50 % R.H.

[7] = system: Mexican Bean Beetle (Epilachna varivestis); assay: F. Mexican Bean Beetle leaf-dip test; conditions: 48 h, 2 days, read-out: Percent Mortality, Mexican Bean Beetle
Method: Compounds to be tested are made up as 100 or 10 ppm. solutions in 65 % acetone/35 % water. Sieva lima bean leaves are dipped in the test solution and set in the hood to dry. When dry, they are placed in 4 -inch petri dishes which have a moist filter paper in the bottom, and 10 third-instar bean beetles are added to each dish. The dishes are covered and held at 80° F., 60 % R.H. After 2 days, mortality counts and estimates of the amount of feeding are made. Compounds showing kills greater than 75 % are further tested at tenfold dilutions in 65 % acetone/35 % water.

Compound	mortality at 100 ppm [1]	mortality at 300 ppm [1]	mortality at 1000 ppm [2]	mortality at 100 ppm ([2]; 2 days)	mortality at 10 ppm [3]	mortality at 100 ppm [4]	mortality at 100 ppm [5]	mortality at 1 ppm (Bean Aphid (Aphis fabae))	mortality at 100 ppm [6]	mortality at 100 ppm [7]	mortality at 1000 ppm ([2]; 1000 ppm., 2 days)	mortality at 100 ppm ([4]; 100 ppm., 2 days)	mortality at 100 ppm ([5]; 100 ppm., 2 days)	mortality at 1 ppm (Bean Aphid (Aphis fabae); 1 ppm., 2 days)	mortality at 10 ppm (Bean Aphid (Aphis fabae); 2 days)	mortality at 100 ppm (Bean Aphid (Aphis fabae); 2 days)	mortality at 10 ppm [6]	mortality at 10 ppm [7]
COP(=S)(OC)SCSC(C)(C)c1cccc(Cl)c1Cl [drawing 12]	0%	0%	100%	0%	90%	0%	0%	75%	100%	60%	–	–	–	–	–	–	–	–
CCOP(=S)(OCC)SCSC(C)(CC)c1ccccc1 (centres unmarked) [drawing 14]	0%	50%	–	0%	70%	–	–	–	100%	0%	100%	0%	0%	100%	100%	100%	0%	–
CCOP(=S)(OCC)SCSC(CC)(CC)c1ccccc1 [drawing 15]	–	0%	–	0%	0%	–	–	–	0%	90%	100%	0%	0%	0%	100%	100%	–	0%
CCCSP(=O)(OCC)SCSC(C)(C)c1ccccc1 (centres unmarked) [drawing 16]	100%	100%	–	100%	0%	–	–	–	100%	80%	100%	0%	0%	90%	100%	100%	0%	80%
CCOP(=S)(OCC)SCSC(C)(C)c1ccc(Cl)cc1 [drawing 18]	100%	100%	–	100%	75%	–	–	–	100%	100%	100%	0%	0%	90%	100%	100%	100%	40%
COP(=S)(OC)SCSC(C)(C)c1ccc(Br)cc1 [drawing 19]	100%	100%	–	100%	75%	–	–	–	100%	–	100%	100%	40%	100%	100%	100%	0%	0%
CCOP(=S)(OCC)SCSC(C)(C)c1ccc(Cl)c(Cl)c1 [drawing 20]	100%	100%	–	100%	0%	–	–	–	100%	30%	100%	50%	0%	0%	90%	100%	0%	0%
COP(=S)(OC)SCSC(C)(C)c1ccc(Cl)c(Cl)c1 [drawing 21]	100%	100%	–	100%	67%	–	–	–	100%	30%	100%	70%	40%	98%	100%	100%	0%	0%
